Measurements reported in patent US11103526B2, “Methods for treatment using small molecule potassium-sparing diuretics and natriuretics” (University of Pittsburgh—Of the Commonwealth System of …, priority 2016, dated 2021).

How the values were obtained:
[1] = system: anesthetized rats; test: Protocol 1: head-to-head intravenous bolus in anesthetized rats (Example 11); assay type: in vivo, male Sprague-Dawley rats; settings: 33.5 μmoles/kg intravenous bolus versus vehicle
Method: Animals. Male Sprague-Dawley rats (Charles River; Wilmington, Mass.) approximately 16 weeks old were employed. The Institutional Animal Care and Use Committee approved all procedures. The investigation conforms to National Institutes of Health Guide for the Care and Use of Laboratory Animals.
Protocol 1. After inducing anesthetization with Inactin® (90 mg/kg, i.p.), each rat was positioned on an isothermal pad. A thermometer probe was inserted into the rectum, and the rat's body temperature was continuously monitored and maintained at 37° C. by adjusting the distance of a heat lamp from the animal's body. Using polyethylene (PE)-240 tubing, the trachea was cannulated to aid respiration. Next, a PE-50 cannula was inserted into the carotid artery and connected to a digital blood pressure analyzer (Micro-Med, Inc., Louisville, Ky.) for continuous measurement of mean arterial blood pressure (MABP) and heart rate (HR). A PE-50 cannula was placed in the jugular vein, and infusion of 0.9% saline (50 μl/min) began. After a stabilization period of approximately one hour, urine was collected for 30 minutes, while MABP and HR were time-averaged (Period 1: 0-30 minutes into protocol). Next, 8-aminoguanosine (33.5 μmoles/kg; 1 ml/kg) or 8-aminoguanine (33.5 μmoles/kg; 1 ml/kg) or vehicle (0.9% saline containing 0.03 N HCl; 1 ml/kg) was administered intravenously as a bolus. The dose was selected based on Examples 1-7. Rats were randomized to treatment groups, and the rats in each group received only one treatment. Ten minutes after the treatments, urine was collected for another 30 minutes (Period 2: […] into protocol). After a 15-minute rest period, urine was again collected for 30 minutes (Period 3: 85-115 minutes into protocol). During each urine collection period, the MABP and HR were continuously recorded. Further, at the midpoint of each 30-minute urine collection period, a blood sample (0.5 ml) was obtained to measure plasma creatinine (Creatinine Colorimetric Assay Kit; catalogue number, 500701; Cayman Chemical; Ann Arbor, Mich.) and aldosterone (Aldosterone ELISA Kit; catalogue number, ADI-900-173; Enzo Life Sciences, Farmingdale, N.Y.) and to determine sodium and potassium by flame photometry (Model IL-943; Instrumentations Laboratory Inc., Lexington, Mass.). Sodium and potassium were also measured in urine (flame photometry) as was glucose (Glucose Colorimetric Assay Kit; catalogue number, 10009582; Cayman Chemical). Creatinine clearance was calculated as an estimate of glomerular filtration rate (GFR).
Statistics. Statistical analysis was performed using 1- or 2-factor repeated measures analysis of variance (ANOVA) followed by a Fisher's Least Significant Difference (LSD) test if the effects in the ANOVA were significant. The criterion of significance was p<0.05. The values are presented as the mean±SEM. […]

[2] = system: obese ZDSD (metabolic syndrome); test: Glycated hemoglobin (HbA1C) in obese ZDSD at end of diabetogenic diet; assay type: in vivo, Zucker Diabetic Sprague Dawley rats; settings: chronic treatment 10 mg/kg/day
Text: This example describes the long-term effects of 8-aminoguanine on (FIG. 18) on glycated hemoglobin (HbA1C) levels in blood from rats with the metabolic syndrome (i.e., obese ZDSD) at the end of a diabetogenic diet. Obese ZDSD are a recently developed model (developed by PreClinOmics) of metabolic syndrome that have a mild elevation of MABP and have dyslipidemia, diabetes, and obesity.

[3] = system: spontaneously hypertensive rats (SHR); test: Long-term MABP in spontaneously hypertensive rats; assay type: in vivo; settings: 5 mg/kg/day in drinking water; significant during weeks 2-5
Text: This example describes the long-term effects of 8-aminoguanine (FIGS. 12A-12B) and 8-aminoguanosine (FIGS. 13A-13B) on mean arterial blood pressure (MABP) in spontaneously hypertensive rats (SHR). SHR are a well-established animal model of genetic hypertension that is not salt sensitive. All animals were instrumented for long-term measurement of MABP by radiotelemetry as previously described (Jackson E K et al., Hypertension, 65:238-249, 2015). Group 1 SHR received only normal drinking water; whereas Group 2 received normal drinking water for 7 days, and then were provided drinking water containing 8-aminoguanine or 8-aminoguanosine (5 mg/kg/day) for the remainder of the study.

[4] = system: anesthetized rats; test: Acute cardiovascular and renal effects of an intravenous bolus in anesthetized rats (Example 1); assay type: in vivo, male Sprague-Dawley rats; settings: 33.5 μmoles/kg intravenous bolus; for urine volume increase: Period 3 (85-115 min) compared with Period 1 (0-30 min); for glucose excretion increase / potassium excretion decrease / sodium excretion increase: Period 3 compared with Period 1
Method: Animals. This study employed male Sprague-Dawley rats (Charles River; Wilmington, Mass.) that were approximately 16 weeks old. The Institutional Animal Care and Use Committee approved all procedures.
The rats were anesthetized with Inactin (90 mg/kg, i.p.) and placed on an isothermal pad, and body temperature was monitored with a rectal probe thermometer and maintained at 37° C. with a heat lamp. […] A PE-50 cannula was inserted into the jugular vein, and an infusion of 0.9% saline at 25 μl/min was initiated. A PE-10 tubing was placed in the left ureter for urine collection. […] The dose was selected based on preliminary experiments with 8-aminoguanosine. […] Each group of rats (n of at least 6) received only one treatment. Ten minutes after the test agents were administered, urine was collected for another 30 minutes (Period 2: […] into the protocol).
Statistics. Absolute values are presented as the mean±SEM. Fold-increases were calculated as follows: Period 3 value÷Period 1 value. Statistical analyses were performed using analysis of variance (ANOVA) followed by Fisher's Least Significant Difference (LSD) test if the overall effects or interactions in the ANOVA were significant. P<0.05 was considered statistically significant.

Nc1nc2[nH]c(N)nc2c(=O)[nH]1 [8-aminoguanine, 8-Aminoguanine]
MABP [1]: neither 8-aminoguanosine nor 8-aminoguanine acutely affected
glomerular filtration rate (GFR; creatinine clearance) [1]: significantly lower
heart rate (HR) [1]: neither 8-aminoguanosine nor 8-aminoguanine acutely affected
plasma aldosterone concentrations [1]: neither 8-aminoguanosine nor 8-aminoguanine acutely affected
urinary glucose excretion [1]: significantly greater
urinary potassium excretion [1]: significantly lower
urinary sodium excretion [1]: significantly greater
urine volume [1]: significantly greater
glycated hemoglobin (HbA1C) levels in blood [2]: dramatic anti-diabetic effect
MABP in SHR [3]: antihypertensive
effect on heart rate (HR) [4]: did not affect
effect on mean arterial blood pressure (MABP) [4]: did not affect
effect on mesenteric blood flow (MBF) [4]: did not affect
effect on renal blood flow (RBF) [4]: did not affect
urine volume increase [4]: 3.6 fold
glucose excretion increase [4]: 12.2 fold
potassium excretion decrease [4]: 71.0%
sodium excretion increase [4]: 17.2 fold

Nc1nc2c(nc(N)n2[C@@H]2O[C@H](CO)[C@@H](O)[C@H]2O)c(=O)[nH]1 [8-aminoguanosine, 8-Aminoguanosine]
MABP [1]: neither 8-aminoguanosine nor 8-aminoguanine acutely affected
glomerular filtration rate (GFR; creatinine clearance) [1]: significantly lower
heart rate (HR) [1]: neither 8-aminoguanosine nor 8-aminoguanine acutely affected
plasma aldosterone concentrations [1]: neither 8-aminoguanosine nor 8-aminoguanine acutely affected
urinary glucose excretion [1]: significantly greater
urinary potassium excretion [1]: significantly lower
urinary sodium excretion [1]: significantly greater
urine volume [1]: significantly greater
glycated hemoglobin (HbA1C) levels in blood [2]: significantly lowered
MABP in SHR [3]: antihypertensive
effect on heart rate (HR) [4]: did not affect
effect on mean arterial blood pressure (MABP) [4]: did not affect
effect on mesenteric blood flow (MBF) [4]: modestly increased
effect on renal blood flow (RBF) [4]: decreased
urine volume increase [4]: 4.2 fold
glucose excretion increase [4]: 12.1 fold
potassium excretion decrease [4]: 69.1%
sodium excretion increase [4]: 26.6 fold
